Data taken from BindingDB's records for doi:10.1021/acs.jmedchem.6b01595 (Dipartimento Di Chimica E Tecnologie Del Farmaco "Sapienza" …, 2017).
pIC50: −log10 of the molar value.

Target: T1, Histone deacetylase (Plasmodium falciparum (isolate 3D7), UniProt Q7K6A1)
T1 sequence (Q7K6A1 whole entry): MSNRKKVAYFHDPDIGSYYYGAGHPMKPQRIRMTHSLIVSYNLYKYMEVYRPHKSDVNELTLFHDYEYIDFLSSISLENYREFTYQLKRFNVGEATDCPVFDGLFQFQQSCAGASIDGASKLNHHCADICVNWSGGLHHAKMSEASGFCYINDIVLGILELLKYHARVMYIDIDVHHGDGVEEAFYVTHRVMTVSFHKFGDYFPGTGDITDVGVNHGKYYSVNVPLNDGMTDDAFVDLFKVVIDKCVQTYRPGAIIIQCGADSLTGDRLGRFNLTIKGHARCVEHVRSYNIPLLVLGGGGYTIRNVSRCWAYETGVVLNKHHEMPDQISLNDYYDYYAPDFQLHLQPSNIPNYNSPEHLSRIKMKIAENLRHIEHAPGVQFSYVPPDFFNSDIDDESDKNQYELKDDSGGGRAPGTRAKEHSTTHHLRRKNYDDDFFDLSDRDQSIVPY
Experiment: Inhibition of HDAC1 in Plasmodium falciparum 3D7 nuclear extract using Ac-RGK(Ac)-AMC fluorogenic peptide as substrate preincubated for 1 hr followed by substrate addition measured after 10 min by fluorescence assay

Q: How did the pIC50 turn out when `C/C=C1\NC(=O)[C@H]2CSSCC/C=C/[C@@H](CC(=O)N[C@H](C(C)C)C(=O)N2)OC(=O)[C@H](C(C)C)NC1=O` was run?
A: 9.05
